Results on 1 molecule are retold here after patent US20250002483A1, “S[…]-ALANINATE DERIVATIVES” (Bayer Aktiengesellschaft, priority 2021, published 2025).

A short description of the data set: physchem. The note with it: 25 °C, pH 4, aqueous buffer, thermodynamic from solid.

Bounds are passed on as bounds.

Protocol: 25 mg compound are placed in 2 ml solvent. […] Thereafter, the solution or suspension is filtered and the remaining solution is analyzed via HPLC. The solubility is determined by comparison of the total area of the substance peak to a calibration curve (external standard).
Thereafter, the solution was centrifuged and analyzed via HPLC. The solubility was determined by comparison of the total area of the substance peak to a calibration curve (external standard). The measurements were conducted in triplicates.

Turning to `CCc1c(N2CC[C@H](O)C2=O)cccc1S(=O)(=O)N[C@@H](CNC(=O)c1ccc(Cl)s1)C(=O)OCCc1nccn1C.Cl` [Example 2, 2-(1-Methyl-1H-imidazol-2-yl)ethyl 3-[(5-chlorothiophene-2-carbonyl)amino]-N-{2-ethyl-3-[(3S)-3-hydroxy-2-oxopyrrolidin-1-yl]benzene-1-sulfonyl}-S-alaninate hydrochloride], the solubility – broadly, how much of the substance goes into solution per volume – is over 500 mg/mL.
